# Test results from article PMC10726357, “New Genetically Engineered Derivatives of Antibacterial Darobactins Underpin Their Potential for Antibiotic Development” (Journal of Medicinal Chemistry, 2023).
# Where no end group is shown, it is not given here.
# How the values were obtained:
# K. pneumoniae DSM-30104 = assay type: cell-based, Klebsiella pneumoniae; conditions: DSM-30104
# Protocol: (§1) The antibacterial activity of novel darobactins was determined by the evaluation of the minimum inhibitory concentration (MIC) as previously described for crude extracts and for pure darobactin analogues.[12]
# E. coli ATCC25922 = assay type: cell-based, Escherichia coli; conditions: ATCC25922
# Protocol: as §1
# P. aeruginosa PA01 [1] = assay type: cell-based, Pseudomonas aeruginosa
# Protocol: as §1
# A. baumannii DSM-30008 = assay type: cell-based, Acinetobacter baumannii; conditions: DSM-30008
# Protocol: as §1
# [2] = test system: Klebsiella pneumoniae DSM-30104; test: Antibacterial activity screening of darobactin-containing crude extracts; assay type: cell-based; design: key: two-fold serial dilution from 1:15 (A) (concentration factor: 6.67×); low activity A B C D E F G H high activity; low activity A B C D E F G H high activity; low activity A B C D E F G H high activity; low activity A B C D E F G H high activity; low activity A B C D E F G H high activity; low activity A B C D E F G H high activity; to 1:3,840 (H) (concentration factor: 0.05×); conditions: derivative-containing crude extract, two-fold serial dilution
# Protocol: (§2) The extracts of production clones for all derivatives were prepared and tested for their antibacterial activity against E. coli ATCC 25922, P. aeruginosa PA01, K. pneumoniae DSM-30104, and A. baumannii DSM-30008.
# as §1
# [3] = test system: Escherichia coli ATCC 25922; test: as above; assay type: cell-based; design: key: two-fold serial dilution from 1:15 (A) (concentration factor: 6.67×); low activity A B C D E F G H high activity; low activity A B C D E F G H high activity; low activity A B C D E F G H high activity; low activity A B C D E F G H high activity; low activity A B C D E F G H high activity; low activity A B C D E F G H high activity; to 1:3,840 (H) (concentration factor: 0.05×); conditions: derivative-containing crude extract, two-fold serial dilution
# Protocol: as §2, §1
# [4] = test system: Acinetobacter baumannii DSM-30008; test: as above; assay type: cell-based; design: key: two-fold serial dilution from 1:15 (A) (concentration factor: 6.67×); low activity A B C D E F G H high activity; low activity A B C D E F G H high activity; low activity A B C D E F G H high activity; low activity A B C D E F G H high activity; low activity A B C D E F G H high activity; low activity A B C D E F G H high activity; to 1:3,840 (H) (concentration factor: 0.05×); conditions: derivative-containing crude extract, two-fold serial dilution
# Protocol: as §2, §1
# P. aeruginosa PA01 [5] = test: as above; assay type: cell-based, Pseudomonas aeruginosa; design: key: two-fold serial dilution from 1:15 (A) (concentration factor: 6.67×); low activity A B C D E F G H high activity; low activity A B C D E F G H high activity; low activity A B C D E F G H high activity; low activity A B C D E F G H high activity; low activity A B C D E F G H high activity; low activity A B C D E F G H high activity; to 1:3,840 (H) (concentration factor: 0.05×); conditions: derivative-containing crude extract, two-fold serial dilution
# Protocol: as §2, §1
Compound,MIC K. pneumoniae [DSM-30104] (K. pneumoniae DSM-30104) [µg/mL],MIC E. coli [ATCC25922] (E. coli ATCC25922) [µg/mL],MIC P. aeruginosa [PA01] (P. aeruginosa PA01 [1]) [µg/mL],MIC A. baumannii [DSM-30008] (A. baumannii DSM-30008) [µg/mL],IC50 HepG2 (HepG2) [µg/mL],"antimicrobial activity of crude extract: highest dilution factor with full growth inhibition, K. pneumoniae DSM-30104 [2]","antimicrobial activity of crude extract: highest dilution factor with full growth inhibition, E. coli ATCC25922 [3]","antimicrobial activity of crude extract: highest dilution factor with full growth inhibition, A. baumannii DSM-30008 [4]","antimicrobial activity of crude extract: highest dilution factor with full growth inhibition, P. aeruginosa PA01 (P. aeruginosa PA01 [5])"
C[C@@H](O)[C@@H]1NC(=O)[C@H]2NC(=O)[C@H](CC(=O)O)NC(=O)[C@@H](N)Cc3c[nH]c4c(cccc34)O[C@@H]2c2c[nH]c3cc(ccc23)[C@H](CCCN)[C@@H](C(=O)N[C@@H](CCCNC(=N)N)C(=O)N[C@@H](Cc2c[nH]c3ccccc23)C(=O)O)NC1=O [D60],16,16,4,2,> 37,,,,
C[C@@H](O)[C@@H]1NC(=O)[C@H]2NC(=O)[C@H](CC(N)=O)NC(=O)[C@@H](N)Cc3c[nH]c4c(cccc34)O[C@@H]2c2c[nH]c3cc(ccc23)[C@H](CCCN)[C@@H](C(=O)N[C@@H](CCC(N)=O)C(=O)N[C@@H](Cc2c[nH]c3ccccc23)C(=O)O)NC1=O [D74],16,4,2,4,> 37,,,,
"D59: novel darobactin derivative, core peptide WKWTKRW (not fully specified (bridges); also: darobactin bicyclic crosslinks)",,,,,,A,A,A,A
"D62: novel darobactin derivative, core peptide WRWTKRW (not fully specified (bridges); also: darobactin bicyclic crosslinks)",,,,,,B,,A,
"D63: novel darobactin derivative, core peptide WVWTKRW (not fully specified (bridges); also: darobactin bicyclic crosslinks)",,,,,,B,,C,A
"D65: novel darobactin derivative, core peptide WSWTKKW (not fully specified (bridges); also: darobactin bicyclic crosslinks)",,,,,,A,A,D,B
"D66: novel darobactin derivative, core peptide WNWTKCW (not fully specified (bridges); also: darobactin bicyclic crosslinks)",,,,,,A,A,C,B
"D67: novel darobactin derivative, core peptide WYWTKRW (not fully specified (bridges); also: darobactin bicyclic crosslinks)",,,,,,C,C,E,D
"D68: novel darobactin derivative, core peptide WLWTKRW (not fully specified (bridges); also: darobactin bicyclic crosslinks)",,,,,,B,B,D,B
"D70: novel darobactin derivative, core peptide WSWSKRW (also: darobactin bicyclic crosslinks)",,,,,,C,C,E,D
"D71: novel darobactin derivative, core peptide WEWSKRW (also: darobactin bicyclic crosslinks)",,,,,,C,C,E,B-C
"D72: novel darobactin derivative, core peptide WKWSKRW (also: darobactin bicyclic crosslinks)",,,,,,B,C,C,B
"D73: novel darobactin derivative, core peptide WDWSKRW (also: darobactin bicyclic crosslinks)",,,,,,A,A,C,B
